Data from patent publication US20050101668A1, “Aminotetralin derivatives as a medicament for the treatment and prevention of myocardial ischemic conditions” (Chiesi Farmaceutici S.p.A., priority 2003, published 2005).

Key:
[1] = system: isolated perfused rat heart; test: Creatine kinase (CK) and lactate dehydrogenase (LDH) activities in heart perfusates; settings: antagonist alone 1 μM; mU/min/g w.w. vs time 20 to 50 min; mean ± S.E.M.
Method: (§1) In brief, the rats were anaesthetized with sodium pentobarbital (60 mg/kg) given by intraperitoneal injection. The chest were opened, and the heart was rapidly excised, and placed in cold (4° C.) heparinized (20 units/ml) Krebs Henseleit solution. […] Coronary perfusion pressure (CPP), left ventricular pressure (LVP) and left ventricular developed pressure (LVDevP; peak left ventricular systolic pressure minus LVEDP) were measured.
(§2) After equilibration of 15 min, hearts were paced at 300 beats/min with an electrical stimulator via two silver electrodes attached to the right atrium and an additional 30 min of perfusion was carried out (pre-ischemic period). Ischemia was induced by reducing the flow rate from 15 ml/min to 1 ml/min for 20 min (ischemic period). A normal flow rate (15 ml/min) was then restored and the perfusion was continued for another 30 min (reperfusion period).
The perfusate, eluted from the heart during pre-ischemic and reperfusion periods, was collected in an ice-cooled beaker as 2.5-min samples collection. Each sample was used for the determination of CK and LDH activities by means of a spectrophotometrical method.

[2] = system: isolated perfused rat heart; test: Isolated perfused rat heart, low flow ischemia/reperfusion: heart mechanics (LVEDP, LVDevP, CPP); settings: antagonist alone 1 μM, pre-ischemic period, mean ± S.E.M.
Method: as §1, §2

With `COC(=O)[C@H]1[C@H]2C[C@H]3c4[nH]c5ccccc5c4CCN3C[C@H]2CC[C@@H]1O` [Rauwolscine, rauwolscine] the “AUC related to CK” value [1] was 5584 ± 297, the “AUC related to LDH” value [1] was 12988 ± 522 and the “AUC related to LVEDP” value ([2]; mm Hg vs time 0 to 50 min) was 505 ± 64. For the same compound, the “AUC related to CPP” value ([2]; mm Hg vs time 20 to 50 min) was 1680 ± 98 and the “AUC related to LVDevP” value ([2]; mm Hg vs time 20 to 50 min) was 912 ± 64.
